# Earlier results in US11904002B2, “Construction and methods of use of a therapeutic cancer vaccine library comprising fusion-specific vaccines” (BostonGene Corporation, priority 2016, dated 2024).
# System: CD8+ T-cells
# Settings: CD8+ T-cells generated as a consequence of anti-PD1 treatment; murine MHC H-2Kb
row,Sequence,recognition by CD8+ T-cells
1,ITYTWTRL,targets of CD8+ T-cells
2,VGFNFRTL,targets of CD8+ T-cells
